The text below walks through data of ChEMBL document CHEMBL1149540, “Synthesis and in vitro protozoocidal activity of diazabicyclic benzotropolone derivatives” (Bioorg Med Chem Lett, 2007).

In one series the test system is Trypanosoma cruzi. The series can be described thus: Inhibition of Trypanosoma cruzi. Type of series: functional, organism-based.
A further series has as its system Leishmania donovani. Nature of the series: Inhibition of Leishmania donovani. Type of series: functional, organism-based.
The nature of series [1]: Cytotoxicity against KB cells. Type of series: cell-based. The following applies: human, read-out: ED50 (the source's name).
The nature of series [2]: Therapeutic index, ratio of IC50 for Leishmania donovani to ED50 for KB cells. Type of series: cell-based. The following applies: human, read-out: TI.
Series [3] can be described thus: Therapeutic index, ratio of IC50 for Trypanosoma cruzi to ED50 for KB cells. Type of series: cell-based. The settings on record: human, read-out: TI.

Converted amounts (≈) assume the structure as drawn.

`COC(=O)N1[C@@H]2C=C[C@@](OC)(C(=O)c3c2cc(OC)c(OC)c3OCc2ccc(F)cc2)N1C(=O)OC`: the IC50 with Trypanosoma cruzi and in the series with Leishmania donovani was over 58.1 µM each time. Moreover, the CC50 in series [1] came out at 56.6 µg/mL (≈ 110 µM).

On to `CCOC(=O)N1[C@@H]2C=C[C@@](OC)(C(=O)c3c2cc(OC)c(OC)c3OCc2ccccc2F)N1C(=O)OCC`, for which the IC50 – broadly, the concentration that inhibits the measured activity by half – with Trypanosoma cruzi came to 54.1 µM; in the series on Leishmania donovani, 8.6 µM. Further, in series [2], the selectivity ratio stood at 21.3. Also, the CC50 in series [1] was 99.7 µg/mL (≈ 183 µM).

On to `CCOC(=O)N1[C@@H]2C=C[C@@](OC)(C(=O)c3c2cc(OC)c(OC)c3OCc2ccccc2)N1C(=O)OCC`, for which the IC50 with Trypanosoma cruzi is 54.1 µM; in the series on Leishmania donovani, over 57 µM. Also, in series [1], the CC50 was 215 µg/mL (≈ 409 µM).

As for `O=C(Cn1ccnc1[N+](=O)[O-])NCc1ccccc1` [BENZNIDAZOLE], the half-inhibitory concentration (IC50) in the series on Trypanosoma cruzi came out at 8.7 µM. That is a single-digit micromolar value.

In the case of `COC(=O)N1[C@@H]2C=C[C@@](OC)(C(=O)c3c2cc(OC)c(OC)c3OC)N1C(=O)OC`, the IC50 in the series on Trypanosoma cruzi and with Leishmania donovani was over 71 µM in each case. Also, the CC50 in series [1] is over 300 µg/mL.

Consider `COC(=O)N1[C@@H]2C=C[C@@](OC)(C(=O)c3c2cc(OC)c(OC)c3OCc2ccc(Cl)cc2)N1C(=O)OC`, for which the values for the IC50 with Trypanosoma cruzi and in the series on Leishmania donovani were 50.9 µM and over 56.3 µM, respectively. For the same molecule, in series [1], the CC50 is 55.9 µg/mL (≈ 105 µM).

For the molecule `COc1cc2c(c(OCc3ccc(Cl)cc3)c1OC)C(=O)[C@]1(OC)C=C[C@H]2N(C(=O)OC(C)C)N1C(=O)OC(C)C`, the figures for the IC50 in the series with Trypanosoma cruzi and in the series on Leishmania donovani were under 1.9 µM and 47.4 µM, respectively. Besides, the CC50 in series [1] turned out to be 42 µg/mL (≈ 71.3 µM). The selectivity ratio in series [3] came to 37.6.

In the case of `CCOC(=O)N1[C@@H]2C=C[C@@](OC)(C(=O)c3c2cc(OC)c(OC)c3OCc2ccc(OC)cc2)N1C(=O)OCC`, the IC50 in the series on Trypanosoma cruzi is over 53.9 µM; in the series with Leishmania donovani it was 9.9 µM. Further, the CC50 in series [1] turned out to be 63.1 µg/mL (≈ 113 µM).

For the molecule `CCCOc1c(OC)c(OC)cc2c1C(=O)[C@]1(OC)C=C[C@H]2N(C(=O)OC(C)C)N1C(=O)OC(C)C`, the half-maximal inhibitory concentration (IC50) with Trypanosoma cruzi is 42.3 µM; in the series on Leishmania donovani, over 59.2 µM. Also, the CC50 in series [1] came out at 299 µg/mL (≈ 590 µM).

Regarding `CCOC(=O)N1[C@@H]2C=C[C@@](OC)(C(=O)c3c2cc(OC)c(OC)c3OCc2ccc(Cl)cc2)N1C(=O)OCC`, the IC50 was 83.8 µM in the series with Trypanosoma cruzi and over 53.5 µM in the series with Leishmania donovani. Further, the CC50 in series [1] was determined as 99.9 µg/mL (≈ 178 µM).

For the molecule `COc1ccc(COc2c(OC)c(OC)cc3c2C(=O)[C@]2(OC)C=C[C@H]3N(C(=O)OC(C)C)N2C(=O)OC(C)C)cc1`, the IC50 in the series with Trypanosoma cruzi was 9.8 µM; with Leishmania donovani it was over 51.3 µM. In addition, the CC50 in series [1] was 47.9 µg/mL (≈ 81.9 µM).

As for `CCCOc1c(OC)c(OC)cc2c1C(=O)[C@]1(OC)C=C[C@H]2N(C(=O)OCC)N1C(=O)OCC`, the IC50 with Trypanosoma cruzi and in the series with Leishmania donovani was over 62.7 µM each time. Also, the CC50 in series [1] was over 300 µg/mL.

For the molecule `COC(=O)N1[C@@H]2C=C[C@@](OC)(C(=O)c3c2cc(OC)c(OC)c3OCc2ccccc2)N1C(=O)OC`, the IC50 in the series on Trypanosoma cruzi and in the series with Leishmania donovani was over 60.2 µM each time. Moreover, the CC50 in series [1] was over 300 µg/mL.

For `CCOC(=O)N1[C@@H]2C=C[C@@](OC)(C(=O)c3c2cc(OC)c(OC)c3OCC)N1C(=O)OCC`, the IC50 with Trypanosoma cruzi and in the series with Leishmania donovani was over 64.6 µM throughout. The CC50 in series [1] was over 300 µg/mL.

As for `COc1cc2c(c(O)c1OC)C(=O)[C@]1(OC)C=C[C@H]2N(C(=O)OC(C)C)N1C(=O)OC(C)C`, the IC50 in the series on Trypanosoma cruzi and in the series on Leishmania donovani was over 64.6 µM each time. Further, the CC50 in series [1] was over 300 µg/mL.

`COC(=O)N1[C@@H]2C=C[C@@](OC)(C(=O)c3c2cc(OC)c(OC)c3OCc2ccccc2F)N1C(=O)OC`: the IC50 in the series on Trypanosoma cruzi and in the series with Leishmania donovani was over 58.1 µM throughout. Moreover, the CC50 in series [1] is 137 µg/mL (≈ 266 µM).

Take `CCCCOc1c(OC)c(OC)cc2c1C(=O)[C@]1(OC)C=C[C@H]2N(C(=O)OC)N1C(=O)OC`: the IC50 is 57.4 µM with Trypanosoma cruzi and over 64.6 µM in the series on Leishmania donovani. For the same molecule, the CC50 in series [1] is over 300 µg/mL.

In the case of `CCOC(=O)N1[C@@H]2C=C[C@@](OC)(C(=O)c3c2cc(OC)c(OC)c3OCc2ccc(F)cc2)N1C(=O)OCC`, the half-maximal inhibitory concentration (IC50) is 51.3 µM in the series on Trypanosoma cruzi and over 55.1 µM in the series with Leishmania donovani. Moreover, the CC50 in series [1] is 51.8 µg/mL (≈ 95.1 µM).

As for `CCOc1c(OC)c(OC)cc2c1C(=O)[C@]1(OC)C=C[C@H]2N(C(=O)OC(C)C)N1C(=O)OC(C)C`, the IC50 in the series with Trypanosoma cruzi and with Leishmania donovani was over 60.9 µM throughout. The CC50 in series [1] is over 300 µg/mL.

With `CCCCOc1c(OC)c(OC)cc2c1C(=O)[C@]1(OC)C=C[C@H]2N(C(=O)OCC)N1C(=O)OCC`, the IC50 in the series on Trypanosoma cruzi and in the series on Leishmania donovani was over 60.9 µM throughout. Moreover, the CC50 in series [1] is 76 µg/mL (≈ 154 µM).

Turning to `CCCOc1c(OC)c(OC)cc2c1C(=O)[C@]1(OC)C=C[C@H]2N(C(=O)OC)N1C(=O)OC`, the IC50 in the series on Trypanosoma cruzi and in the series with Leishmania donovani was over 66.6 µM each time. Moreover, the CC50 in series [1] was over 300 µg/mL.

On to `COc1cc2c(c(OCc3ccccc3F)c1OC)C(=O)[C@]1(OC)C=C[C@H]2N(C(=O)OC(C)C)N1C(=O)OC(C)C`, for which the results for the IC50 with Trypanosoma cruzi and in the series on Leishmania donovani were 9.5 µM and over 52.4 µM, respectively. In series [1], the CC50 came out at 109 µg/mL (≈ 190 µM).

On to `COc1cc2c(c(OCc3ccc(F)cc3)c1OC)C(=O)[C@]1(OC)C=C[C@H]2N(C(=O)OC(C)C)N1C(=O)OC(C)C`, for which the 50% inhibitory concentration (IC50) in the series with Trypanosoma cruzi is 18 µM; in the series on Leishmania donovani, over 52.4 µM. Moreover, the CC50 in series [1] is over 300 µg/mL.

Take `CCOc1c(OC)c(OC)cc2c1C(=O)[C@]1(OC)C=C[C@H]2N(C(=O)OC)N1C(=O)OC`: the IC50 in the series on Trypanosoma cruzi and with Leishmania donovani was over 68.8 µM in each case. Also, the CC50 in series [1] was over 300 µg/mL.

As to `CCCCOc1c(OC)c(OC)cc2c1C(=O)[C@]1(OC)C=C[C@H]2N(C(=O)OC(C)C)N1C(=O)OC(C)C`, the IC50 in the series with Trypanosoma cruzi is 23.4 µM; in the series on Leishmania donovani it was over 57.6 µM. Besides, the CC50 in series [1] stood at 22.1 µg/mL (≈ 42.5 µM).

Take `COc1cc2c(c(OC)c1OC)C(=O)[C@]1(OC)C=C[C@H]2N(C(=O)OC(C)C)N1C(=O)OC(C)C`: the half-inhibitory concentration (IC50) in the series on Trypanosoma cruzi and with Leishmania donovani was over 62.7 µM each time. For the same molecule, the CC50 in series [1] is over 300 µg/mL.

For the molecule `COC(=O)N1[C@@H]2C=C[C@@](OC)(C(=O)c3c2cc(OC)c(OC)c3OCc2ccc(OC)cc2)N1C(=O)OC`, the IC50 in the series with Trypanosoma cruzi and with Leishmania donovani was over 56.8 µM in each case. Moreover, the CC50 in series [1] was over 300 µg/mL.

On to `COc1cc2c(c(OCc3ccccc3)c1OC)C(=O)[C@]1(OC)C=C[C@H]2N(C(=O)OC(C)C)N1C(=O)OC(C)C`, for which the IC50 in the series with Trypanosoma cruzi was 12.1 µM; in the series on Leishmania donovani, over 54.1 µM. In addition, in series [1], the CC50 turned out to be 94 µg/mL (≈ 169 µM).

In the case of `COC(=O)N1[C@@H]2C=C[C@@](OC)(C(=O)c3c2cc(OC)c(OC)c3O)N1C(=O)OC`, the IC50 with Trypanosoma cruzi and with Leishmania donovani was over 73.5 µM each time. Also, the CC50 in series [1] was over 300 µg/mL.
